Measured values: ChEMBL document CHEMBL1122559, “Inhibition of human dihydrofolate reductase by 4,6-diamino-1,2-dihydro-2,2-dimethyl-1-(substituted-phenyl)-s-triazine s. A quantitative structure-activity relationship analysis” (J Med Chem, 1984)

Each molecule was assayed against T1, Dihydrofolate reductase (Homo sapiens) (UniProt P00374).
T1 sequence (whole entry): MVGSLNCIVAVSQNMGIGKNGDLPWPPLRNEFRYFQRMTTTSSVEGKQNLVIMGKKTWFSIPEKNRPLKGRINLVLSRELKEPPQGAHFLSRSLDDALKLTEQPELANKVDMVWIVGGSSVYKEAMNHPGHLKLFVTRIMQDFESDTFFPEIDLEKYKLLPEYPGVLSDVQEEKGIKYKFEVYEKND
Description: Inhibitory activity against human lymphoblastoid cell (WIL2) dihydrofolate reductase (DHFR)

SMILES | Log 1/Ki app
CC1(C)N=C(N)N=C(N)N1c1ccc(C#N)cc1 | 3.69
CC(=O)c1ccc(N2C(N)=NC(N)=NC2(C)C)cc1 | 4.5
CC1(C)N=C(N)N=C(N)N1c1ccc(OCc2ccc(Cl)c(Cl)c2)cc1 | 6.46
CC1(C)N=C(N)N=C(N)N1c1ccc(CSc2ccccc2)cc1 | 7.33
CC1(C)N=C(N)N=C(N)N1c1ccc(O)cc1 | 4.57
CCCCCCOc1ccc(N2C(N)=NC(N)=NC2(C)C)cc1 | 5.53
CC(=O)Nc1ccc(N2C(N)=NC(N)=NC2(C)C)cc1 | 4.23
Cc1ccccc1SCc1ccc(N2C(N)=NC(N)=NC2(C)C)cc1 | 7.18
CC1(C)N=C(N)N=C(N)N1c1ccc(C(F)(F)F)cc1 | 5.58
CC1(C)N=C(N)N=C(N)N1c1ccc(OCc2ccc(C(N)=O)cc2)cc1 | 7.23
Cc1cccc(SCc2ccc(N3C(N)=NC(N)=NC3(C)C)cc2)c1 | 7.22
CC1(C)N=C(N)N=C(N)N1c1ccc(N)cc1 | 4.65
CCCCCCCCCCCOc1ccc(N2C(N)=NC(N)=NC2(C)C)cc1 | 5.68
CCOC(=O)c1ccc(N2C(N)=NC(N)=NC2(C)C)cc1 | 3.46
CC1(C)N=C(N)N=C(N)N1c1ccc(F)cc1 | 6.15
CCCCCCCCCc1ccc(N2C(N)=NC(N)=NC2(C)C)cc1 | 6.52
CC1(C)N=C(N)N=C(N)N1c1ccc(C#Cc2ccccc2)cc1 | 5.42
CC1(C)N=C(N)N=C(N)N1c1ccc(I)cc1 | 5.51

SMILES | Log 1/Ki app
COc1ccc(N2C(N)=NC(N)=NC2(C)C)cc1 | 5.31
CC1(C)N=C(N)N=C(N)N1c1ccc(Br)cc1 | 5.76
CCCCCCCCCCCCOc1ccc(N2C(N)=NC(N)=NC2(C)C)cc1 | 5.85
CC(C)(C)c1ccc(N2C(N)=NC(N)=NC2(C)C)cc1 | 5.66
CC1(C)N=C(N)N=C(N)N1c1ccc(SCc2ccccc2)cc1 | 7.01
CC1(C)N=C(N)N=C(N)N1c1ccc(S(N)(=O)=O)cc1 | 3.81
CC1(C)N=C(N)N=C(N)N1c1ccc(OCCOc2ccc(N)cc2)cc1 | 6
COC(=O)c1ccc(N2C(N)=NC(N)=NC2(C)C)cc1 | 3.85
CC1(C)N=C(N)N=C(N)N1c1ccc(OCc2ccc(S(N)(=O)=O)cc2)cc1 | 7.21
CC1(C)N=C(N)N=C(N)N1c1ccc(OCC(=O)N2CCOCC2)cc1 | 5.66
CC1(C)N=C(N)N=C(N)N1c1ccc(OCc2ccc(CO)cc2)cc1 | 7.12
CCCOc1ccc(N2C(N)=NC(N)=NC2(C)C)cc1 | 5.57
CC1(C)N=C(N)N=C(N)N1c1ccc(OCc2ccccc2)cc1 | 6.93
CC1(C)N=C(N)N=C(N)N1c1ccc(S(C)(=O)=O)cc1 | 4.08
Cc1ccc(N2C(N)=NC(N)=NC2(C)C)cc1 | 5.97
CCCCc1ccc(N2C(N)=NC(N)=NC2(C)C)cc1 | 6.27
CC1(C)N=C(N)N=C(N)N1c1ccc(SCc2ccc(Cl)cc2)cc1 | 6.97
